Measured values published in patent US20220340629A1, “Myosin Derived Peptides and Related Compounds with Anticoagulant Activities” (THE SCRIPPS RESEARCH INSTITUTE, priority 0001, published 2022).
Starred links: 1 amine or outer side, 2 acyl side, 3 side chain; linkers in the order of their positions; H or OH if unused. Positions of bridges follow the written chain, without caps; N, C: chain ends. Residues, ends and D or L forms follow the SMILES beside them. Suc = O=C(CCC(=O)[*:2])[*:1]

Test system: thrombin generation in human platelet poor plasma with skeletal muscle myosin
Assay: Assay 2A: thrombin generation, recalcification of human platelet poor plasma + myosin
Type: biochemical
Details: human platelet poor plasma 30%, myosin 50 nM, CaCl2 10 mmol/L; read-out: 2A (recalcification +myosin)
Description: Activities of the various peptides and derivative compounds were also examined via assays using recalcification of human plasma. [One of] these assay format (2A) involves monitoring thrombin generation in platelet poor plasma (PPP). Specifically, pooled normal human platelet poor plasma (PPP) (obtained from George King Bio Medical Inc., Overland Park, Kans.) (30%) was incubated with skeletal muscle myosin at 50 nM in the presence of peptide in DMSO or DMSO alone for 5 min at 37° C. Then, fluorogenic thrombin substrate solution (Z-Gly-Gly-Arg-AMC) (I-1140) with CaCl2 (10 mmol/L final) alone was added to the reaction mixture (total 110 μl) to initiate coagulation. Thrombin generation was followed continuously for 25 min using SPECTRAmax GEMINI XS fluorometer (Molecular Devices, Sunnyvale, Calif.) with excitation and emission wavelengths set at 360 and 460 nm, respectively. The first derivative of fluorescence versus time was used to produce thrombin generation curves with the correction for substrate consumption and inner filter effect. For this assay 96 well plate (total 110 μL) or 384 well plates (total 30 μL) were used.
Activities obtained from Assay 2A (recalcification of human plasma in the presence of myosin) were used to rank the various peptides listed in Table 3. As noted above, this assay monitors recalcification of plasma to stimulate thrombin generation. In this assay, potency of the compounds was determined as the peptide concentration for 50% inhibition of thrombin generation, defined as “IC50”.

**Q.** How did the IC50 turn out when `CC[C@H](C)[C@H](NC(=O)[C@H](C)NC(=O)[C@H](CCC(=O)O)NC(=O)[C@H](CCCNC(=N)N)NC(=O)[C@H](CCCNC(=N)N)NC(=O)[C@@H]1CCCCNC(=O)CCC(=O)NCCCC[C@@H]2NC(=O)[C@@H](NC(=O)[C@H](C)NC(=O)[C@H](CC(C)C)NC(=O)[C@H](Cc3ccccc3)NC(=O)CNC(=O)[C@H](CCCNC(=N)N)NC(=O)[C@H](CS)NC(=O)[C@H](CCCNC(=N)N)NC(=O)[C@H](C)N)CCCCNC(=O)CCC(=O)NCCCC[C@H](NC(=O)[C@H](CCSC)NC(=O)[C@H](CCCNC(=N)N)NC(=O)[C@H](CCC(N)=O)NC(=O)[C@H](Cc3ccc(O)cc3)NC(=O)[C@H](CCC(=O)O)NC2=O)C(=O)N1)C(=O)N[C@@H](Cc1ccccc1)C(=O)N[C@@H](CS)C(=O)N[C@H](C(=O)N[C@@H](CCC(N)=O)C(=O)N[C@@H](Cc1ccc(O)cc1)C(=O)N[C@@H](CC(N)=O)C(=O)N[C@H](C(=O)N[C@@H](CCCNC(=N)N)C(=O)N[C@@H](CO)C(=O)N[C@@H](Cc1ccccc1)C(=O)N[C@@H](CCSC)C(=O)N[C@@H](CC(N)=O)C(=O)N[C@H](C(=O)N[C@@H](CCCCN)C(=O)N[C@@H](Cc1c[nH]cn1)C(=O)N[C@@H](Cc1c[nH]c2ccccc12)C(=O)N1CCC[C@H]1C(=O)N[C@@H](Cc1c[nH]c2ccccc12)C(N)=O)C(C)C)[C@@H](C)CC)[C@@H](C)CC` [HC156] (H-ARCRGFLAKKEYQRMKKRREAIFCIQYNIRSFMNVKHWPW-NH2; linker 9-16, 10-17 via Suc (inferred); N-terminus and C-terminus assumed) was run?
**A.** 9.3 µM

**Q.** How did the IC50 turn out when `CC[C@H](C)[C@H](NC(=O)[C@H](C)NC(=O)[C@H](CCC(=O)O)NC(=O)[C@@H]1CCCCNC(=O)CCC(=O)NCCCC[C@@H]2NC(=O)[C@H](CCC(=O)O)NC(=O)[C@H](C(C)C)NC(=O)[C@@H](NC(=O)[C@H](C)NC(=O)[C@H](CC(C)C)NC(=O)[C@H](Cc3ccccc3)NC(=O)CNC(=O)[C@H](CCCNC(=N)N)NC(=O)[C@H](CS)NC(=O)[C@H](CCCNC(=N)N)NC(=O)[C@H](C)N)CCCCNC(=O)CCC(=O)NCCCC[C@H](NC(=O)[C@H](CCSC)NC(=O)[C@H](CCCNC(=N)N)NC(=O)[C@H](CCC(N)=O)NC2=O)C(=O)N[C@@H](CCC(=O)O)C(=O)N[C@@H](CCCNC(=N)N)C(=O)N1)C(=O)N[C@@H](Cc1ccccc1)C(=O)N[C@@H](CS)C(=O)N[C@H](C(=O)N[C@@H](CCC(N)=O)C(=O)N[C@@H](Cc1ccc(O)cc1)C(=O)N[C@@H](CC(N)=O)C(=O)N[C@H](C(=O)N[C@@H](CCCNC(=N)N)C(=O)N[C@@H](CO)C(=O)N[C@@H](Cc1ccccc1)C(=O)N[C@@H](CCSC)C(=O)N[C@@H](CC(N)=O)C(=O)N[C@H](C(=O)N[C@@H](CCCCN)C(=O)N[C@@H](Cc1c[nH]cn1)C(=O)N[C@@H](Cc1c[nH]c2ccccc12)C(=O)N1CCC[C@H]1C(=O)N[C@@H](Cc1c[nH]c2ccccc12)C(N)=O)C(C)C)[C@@H](C)CC)[C@@H](C)CC` [HC157] (H-ARCRGFLAKVEKQRMKERKEAIFCIQYNIRSFMNVKHWPW-NH2; linker 9-16, 12-19 via Suc (inferred); N-terminus and C-terminus assumed) was run?
**A.** 11 µM

**Q.** With `CC[C@H](C)[C@H](NC(=O)[C@H](C)NC(=O)[C@@H]1CCCCNC(=O)CCC(=O)NCCCC[C@@H]2NC(=O)[C@H](Cc3ccc(O)cc3)NC(=O)[C@H](CCC(=O)O)NC(=O)[C@H](C(C)C)NC(=O)[C@@H](NC(=O)[C@H](C)NC(=O)[C@H](CC(C)C)NC(=O)[C@H](Cc3ccccc3)NC(=O)CNC(=O)[C@H](CCCNC(=N)N)NC(=O)[C@H](CS)NC(=O)[C@H](CCCNC(=N)N)NC(=O)[C@H](C)N)CCCCNC(=O)CCC(=O)NCCCC[C@H](NC(=O)[C@H](CCSC)NC(=O)[C@H](CCCNC(=N)N)NC2=O)C(=O)N[C@@H](CCC(=O)O)C(=O)N[C@@H](CCCNC(=N)N)C(=O)N[C@@H](CCCNC(=N)N)C(=O)N1)C(=O)N[C@@H](Cc1ccccc1)C(=O)N[C@@H](CS)C(=O)N[C@H](C(=O)N[C@@H](CCC(N)=O)C(=O)N[C@@H](Cc1ccc(O)cc1)C(=O)N[C@@H](CC(N)=O)C(=O)N[C@H](C(=O)N[C@@H](CCCNC(=N)N)C(=O)N[C@@H](CO)C(=O)N[C@@H](Cc1ccccc1)C(=O)N[C@@H](CCSC)C(=O)N[C@@H](CC(N)=O)C(=O)N[C@H](C(=O)N[C@@H](CCCCN)C(=O)N[C@@H](Cc1c[nH]cn1)C(=O)N[C@@H](Cc1c[nH]c2ccccc12)C(=O)N1CCC[C@H]1C(=O)N[C@@H](Cc1c[nH]c2ccccc12)C(N)=O)C(C)C)[C@@H](C)CC)[C@@H](C)CC` [HC158] (H-ARCRGFLAKVEYKRMKERRKAIFCIQYNIRSFMNVKHWPW-NH2; linker 9-16, 13-20 via Suc (inferred); N-terminus and C-terminus assumed) as the compound, how does the IC50 read?
**A.** 5.8 µM

**Q.** Which IC50 does the source give for `CC[C@H](C)[C@@H]1NC(=O)[C@H](C)NC(=O)[C@@H](NC(=O)[C@H](CCCNC(=N)N)NC(=O)[C@H](CCCNC(=N)N)NC(=O)[C@H](CCC(=O)O)NC(=O)[C@@H]2CCCCNC(=O)CCC(=O)NCCCC[C@H](NC(=O)[C@H](C)NC(=O)[C@H](CC(C)C)NC(=O)[C@H](Cc3ccccc3)NC(=O)CNC(=O)[C@H](CCCNC(=N)N)NC(=O)[C@H](CS)NC(=O)[C@H](CCCNC(=N)N)NC(=O)[C@H](C)N)C(=O)N[C@@H](C(C)C)C(=O)N[C@@H](CCC(=O)O)C(=O)N[C@@H](Cc3ccc(O)cc3)C(=O)N[C@@H](CCC(N)=O)C(=O)N[C@@H](CCCNC(=N)N)C(=O)N[C@@H](CCSC)C(=O)N2)CCCCNC(=O)CCC(=O)NCCCC[C@@H](C(=O)N[C@@H](CC(N)=O)C(=O)N[C@H](C(=O)N[C@@H](CCCNC(=N)N)C(=O)N[C@@H](CO)C(=O)N[C@@H](Cc2ccccc2)C(=O)N[C@@H](CCSC)C(=O)N[C@@H](CC(N)=O)C(=O)N[C@H](C(=O)N[C@@H](CCCCN)C(=O)N[C@@H](Cc2c[nH]cn2)C(=O)N[C@@H](Cc2c[nH]c3ccccc23)C(=O)N2CCC[C@H]2C(=O)N[C@@H](Cc2c[nH]c3ccccc23)C(N)=O)C(C)C)[C@@H](C)CC)NC(=O)[C@H](CCC(N)=O)NC(=O)[C@H]([C@@H](C)CC)NC(=O)[C@H](CS)NC(=O)[C@H](Cc2ccccc2)NC1=O` [HC159] (H-ARCRGFLAKVEYQRMKERRKAIFCIQKNIRSFMNVKHWPW-NH2; linker 9-16, 20-27 via Suc (inferred); N-terminus and C-terminus assumed) here?
**A.** 13.3 µM

**Q.** With `CC[C@H](C)[C@H](NC(=O)[C@H](C)NC(=O)[C@H](CCC(=O)O)NC(=O)[C@H](CCCNC(=N)N)NC(=O)[C@H](CCCNC(=N)N)NC(=O)[C@H](CCC(=O)O)NC(=O)[C@@H]1CCCCNC(=O)CCC(=O)NCCCC[C@H](NC(=O)[C@H](C)NC(=O)[C@H](CC(C)C)NC(=O)[C@H](Cc2ccccc2)NC(=O)CNC(=O)[C@H](CCCNC(=N)N)NC(=O)[C@H](CS)NC(=O)[C@H](CCCNC(=N)N)NC(=O)[C@H](C)N)C(=O)N[C@@H](C(C)C)C(=O)N[C@@H](CCC(=O)O)C(=O)N[C@@H](Cc2ccc(O)cc2)C(=O)N[C@@H](CCC(N)=O)C(=O)N[C@@H](CCCNC(=N)N)C(=O)N[C@@H](CCSC)C(=O)N1)C(=O)N[C@@H](Cc1ccccc1)C(=O)N[C@H]1CCCCNC(=O)CCC(=O)NCCCC[C@@H](C(=O)N[C@@H](Cc2ccccc2)C(=O)N[C@@H](CCSC)C(=O)N[C@@H](CC(N)=O)C(=O)N[C@H](C(=O)N[C@@H](CCCCN)C(=O)N[C@@H](Cc2c[nH]cn2)C(=O)N[C@@H](Cc2c[nH]c3ccccc23)C(=O)N2CCC[C@H]2C(=O)N[C@@H](Cc2c[nH]c3ccccc23)C(N)=O)C(C)C)NC(=O)[C@H](CCCNC(=N)N)NC(=O)[C@H]([C@@H](C)CC)NC(=O)[C@H](CC(N)=O)NC(=O)[C@H](Cc2ccc(O)cc2)NC(=O)[C@H](CCC(N)=O)NC(=O)[C@H]([C@@H](C)CC)NC1=O` [HC160] (H-ARCRGFLAKVEYQRMKERREAIFKIQYNIRKFMNVKHWPW-NH2; linker 9-16, 24-31 via Suc (inferred); N-terminus and C-terminus assumed) as the compound, how does the IC50 read?
**A.** 3.4 µM

**Q.** `CC[C@H](C)[C@H](NC(=O)[C@H](C)NC(=O)[C@H](CCC(=O)O)NC(=O)[C@H](CCCNC(=N)N)NC(=O)[C@H](CCCNC(=N)N)NC(=O)[C@H](CCC(=O)O)NC(=O)[C@@H]1CCCCNC(=O)CCC(=O)NCCCC[C@H](NC(=O)[C@H](C)NC(=O)[C@H](CC(C)C)NC(=O)[C@H](Cc2ccccc2)NC(=O)CNC(=O)[C@H](CCCNC(=N)N)NC(=O)[C@H](CS)NC(=O)[C@H](CCCNC(=N)N)NC(=O)[C@H](C)N)C(=O)N[C@@H](C(C)C)C(=O)N[C@@H](CCC(=O)O)C(=O)N[C@@H](Cc2ccc(O)cc2)C(=O)N[C@@H](CCC(N)=O)C(=O)N[C@@H](CCCNC(=N)N)C(=O)N[C@@H](CCSC)C(=O)N1)C(=O)N[C@@H](Cc1ccccc1)C(=O)N[C@@H](CS)C(=O)N[C@H](C(=O)N[C@@H](CCC(N)=O)C(=O)N[C@@H](Cc1ccc(O)cc1)C(=O)N[C@@H](CC(N)=O)C(=O)N[C@H](C(=O)N[C@@H](CCCNC(=N)N)C(=O)N[C@H]1CCCCNC(=O)CCC(=O)NCCCC[C@@H](C(=O)N2CCC[C@H]2C(=O)N[C@@H](Cc2c[nH]c3ccccc23)C(N)=O)NC(=O)[C@H](Cc2c[nH]cn2)NC(=O)[C@H](CCCCN)NC(=O)[C@H](C(C)C)NC(=O)[C@H](CC(N)=O)NC(=O)[C@H](CCSC)NC(=O)[C@H](Cc2ccccc2)NC1=O)[C@@H](C)CC)[C@@H](C)CC` [HC161] (H-ARCRGFLAKVEYQRMKERREAIFCIQYNIRKFMNVKHKPW-NH2; linker 9-16, 31-38 via Suc (inferred); N-terminus and C-terminus assumed) was tested. Which IC50 did it give?
**A.** 6.4 µM
